For this assay, the system named is HCC1143 cells. Nature of the assay: 384 well plate cell survival after ARID1A siRNA transfection. It is filed as cell-based, human. Conditions: ARID1A siRNA vs control, five continuous days exposure. The source says:
FIG. 1. […] A. Structure of VE-821 and schematic describing workflow for parallel VE-821 chemosensitisation screens in MCF12A and HCC1143 cells. B. Scatter plots of VE-821 Drug Effect (DE) Z-scores from all 1280 siRNAs used in the in the chemosensitisation screens. The DE Z-score threshold of −2 (red line) was used for defining candidate synthetic lethal interactions is shown. C. Venn diagram of DE<−2 VE-821 sensitisation hits in MCF12A and HCC1143 cells. Numbers shown indicate number of sensitisation genes. Amongst the 30 genes with DE Z-scores <−2 in both cell lines, seven well-established tumour suppressor genes were identified. D. Bar charts illustrating DE Z-scores for control, non-targeting, siRNAs (siALLSTAR, siCON1, siCON2) and ARID1A siRNAs in the chemosensitisation screens. Values shown are median from triplicate screens and error bars represent SD. […]
A siRNA library was purchased from Dharmacon. […] RNAi screening conditions were optimised and raw CellTitre-Glo (Promega) luminescent viability readings were generated as previously described21. […]
Short-term survival assays were performed in 384-well plates. […] Drug was added 24 h after seeding and cells were continuously exposed to the drug for five days, after which cell viability was estimated using CellTitre-Glo luminescence (Promega). […] Colonies were counted manually. […]

The structures appear in SMILES notation.

`CNCc1ccc(-c2cc(-c3nc(-c4ccc(S(=O)(=O)C(C)C)cc4)cnc3N)on2)cc1` [VX-970, 5-[4-(Isopropylsulfonyl)phenyl]-3-(3-{4-[(methylamino)methyl]phenyl}-1,2-oxazol-5-yl)-2-pyrazinamine]: the “ATRi sensitivity caused by ARID1A siRNA” value is “caused sensitivity”.

These data come from US12233060B2, “Inhibitors of Ataxia-Telangiectasia Mutated and Rad3-related protein kinase (ATR) for use in methods of treating cancer” (THE INSTITUTE OF CANCER RESEARCH: ROYAL CANCER HOSPITAL, priority 2016, dated 2025).
